Results published in patent US20040231558A1, “Water-color ink” (priority 2001, published 2004).

Assays:
[1] = Evaluation of moisture resistance (image-recorded paper at 40° C. and humidity 85%, visual observation); type: physicochemical; settings: for (B) moisture resistance: image-recorded paper at 40° C. and humidity 85%, visually observed
[2] = Solubility in water of the salt
[3] = Evaluation of storage stability of ink (40° C. for 3 months, insoluble matter and clogging); type: physicochemical; settings: recording liquid stored at 40° C. for 3 months; for (C) storage stability: insoluble matter and clogging
Description: (§1) The prepared ink was filled in an ink cartridge for a piezo-type ink-jet printer EM-930C (manufactured by Seiko Epson). The printing was performed with this printer, and the light fastness was evaluated. Further, the storage stability of the ink was evaluated.
(C) Evaluation of Storage Stability of Ink:
After a recording liquid was stored at 40° C. for 3 months, it was observedwhether or not an insoluble matterwas precipitated, and whether or not clogging occurred after continuous recording with the foregoing printer for a long period of time.

[4] = Evaluation of light fastness-1 (OD value of printed portion after 100 hours xenon fadeometer); type: physicochemical; settings: ink prepared as in Example 1 from the salt named in the row; OD value of printed portion after 100 hours xenon fadeometer
Description: as §1
(A)-1 Evaluation of Light Fastness-1
Printing density (OD value) was measured after irradiating a printed portion with light for 100 hours using a xenon fadeometer (manufactured by Suga Shikenki) to evaluate the light fastness.

[5] = Evaluation of light fastness-2 (OD value of printed portion after 400 hours xenon fadeometer); type: physicochemical; settings: for (A)-2 light fastness-2: ink prepared as in Example 1 from the salt named in the row, OD value of printed portion after 400 hours xenon fadeometer
Description: as §1
(A)-2 Evaluation of Light Fastness-2
Printing density (OD value) was measured after irradiating a printed-portion with light for 400 hours using axenon fadeometer (manufactured by Suga Shikenki), and the light fastness was evaluated.

Row | (B) moisture resistance [1] | Solubility in water ([2]; salt type M1 to M4) | (C) storage stability [3] | (A)-1 light fastness-1 [4] | (A)-2 light fastness-2 [5] | Compound | Solubility in water ([2]; % by weight) | Evaluation of moisture resistance ([1]; image-recorded paper at 40° C., humidity 85%, visual observation) | Evaluation of ink storage stability ([3]; precipitation and clogging) | Evaluation of light fastness-2 ([5]; ink with 3% dye printed with ink-jet printer EM-930C, 400 hours xenon fadeometer, OD value vs before irradiation)
1 | Δ | >5% | ◯ | ⊚ | ◯ | Cc1c(N=Nc2cccc(C(=O)O)c2C(=O)O)c(O)n(Cc2ccc(C(=O)O)cc2)c(=O)c1C#N [compound 58] | – | – | – | –
2 | Δ | >10% | ◯ | ⊚ | ⊚ | Cc1c(N=Nc2cc(S(=O)(=O)O)c(C(=O)O)cc2C(=O)O)c(O)[nH]c(=O)c1C#N [compound 7] | – | – | – | –
3 | ◯ | >5% | ◯ | ⊚ | ◯ | Cc1c(N=Nc2cccc(C(=O)O)c2C(=O)O)c(O)n(CCCC(=O)O)c(=O)c1C#N [compound 48] | – | – | – | –
4 | Δ | >5% | ◯ | ⊚ | ⊚ | Cc1c(N=Nc2cc(C(=O)O)ccc2C(=O)O)c(O)n(CC(=O)O)c(=O)c1C#N [compound 77] | – | – | – | –
5 | Δ | >5% | ◯ | ⊚ | ⊚ | Cc1c(C(=O)O)ccc(C(=O)O)c1N=Nc1c(C)c(C#N)c(=O)n(CCCS(=O)(=O)O)c1O [compound 137] | – | – | – | –
6 | ◯ | >8% | ◯ | ⊚ | ◯ | Cc1c(C(=O)O)ccc(C(=O)O)c1N=Nc1c(C)c(C#N)c(=O)n(CC(O)CC(=O)O)c1O (stereo not shown) [compound 164] | – | – | – | –
7 | – | – | – | – | – | Cc1c(N=Nc2cc(C(=O)[O-])ccc2C(=O)[O-])c(O)[nH]c(=O)c1C#N.[K+].[K+] [potassium salt of compound No. 11] | ≥ 3% | ο | ο | ♯
8 | ◯ | >3% | ◯ | ⊚ | ⊚ | CNC(=O)c1cc(C(=O)O)c(N=Nc2c(O)[nH]c(=O)c(C#N)c2C)cc1C(=O)O [compound 14] | – | – | – | –
9 | ◯ | >3% | ◯ | ⊚ | ⊚ | Cc1c(N=Nc2cc(Cl)cc(C(=O)O)c2C(=O)O)c(O)[nH]c(=O)c1C#N [compound 3] | – | – | – | –
10 | ◯ | >5% | ◯ | ⊚ | ◯ | Cc1c(C(=O)O)ccc(C(=O)O)c1N=Nc1c(O)[nH]c(=O)c(C#N)c1C [Compound No. 24] | – | – | – | –
11 | ◯ | >5% | Δ | ⊚ | Δ | Cc1c(N=Nc2cccc(C(=O)O)c2C(=O)O)c(O)n(C(=O)O)c(=O)c1C#N [compound 46] | – | – | – | –
12 | Δ | >5% | ◯ | ⊚ | ⊚ | Cc1c(N=Nc2c(C(=O)O)cccc2C(=O)O)c(O)[nH]c(=O)c1C#N [compound 16] | – | – | – | –
13 | Δ | >5% | ◯ | ⊚ | ⊚ | Cc1c(N=Nc2c(C(=O)O)cccc2C(=O)O)c(O)n(C(O)CO)c(=O)c1C#N (stereo not shown) [compound 43] | – | – | – | –
14 | Δ and ◯ | >5% | ◯ and Δ | ⊚ | ⊚ and Δ | Cc1c(N=Nc2cccc(C(=O)O)c2C(=O)O)c(O)n(CCS(=O)(=O)O)c(=O)c1C#N [compound 106] | – | – | – | –
15 | ◯ | >3% | ◯ | ⊚ | ⊚ | Cc1c(N=Nc2cccc(C(=O)O)c2C(=O)O)c(O)[nH]c(=O)c1C#N [Compound No. 1] | – | – | – | –
16 | Δ | >5% | ◯ | ⊚ | ◯ | Cc1c(N=Nc2cccc(C(=O)O)c2C(=O)O)c(O)n(CS(=O)(=O)O)c(=O)c1C#N [compound 105] | – | – | – | –
17 | – | >5% | ◯ | ⊚ | ⊚ | Cc1c(N=Nc2cc(S(=O)(=O)O)ccc2C(=O)O)c(O)n(CCC(=O)O)c(=O)c1C#N [compound 218] | – | – | – | –

Row | Compound | (B) moisture resistance [1] | Solubility in water ([2]; salt type M1 to M4) | (C) storage stability [3] | (A)-1 light fastness-1 [4] | (A)-2 light fastness-2 [5] | Solubility in water ([2]; % by weight) | Evaluation of moisture resistance ([1]; image-recorded paper at 40° C., humidity 85%, visual observation) | Evaluation of ink storage stability ([3]; precipitation and clogging) | Evaluation of light fastness-2 ([5]; ink with 3% dye printed with ink-jet printer EM-930C, 400 hours xenon fadeometer, OD value vs before irradiation)
18 | C[N+](C)(C)C.C[N+](C)(C)C.C[N+](C)(C)C.C[N+](C)(C)C.Cc1c(N=Nc2cc(C(=O)[O-])ccc2C(=O)[O-])c(O)n(CCNc2nc(Cl)nc(NCCn3c(O)c(N=Nc4cc(C(=O)[O-])ccc4C(=O)[O-])c(C)c(C#N)c3=O)n2)c(=O)c1C#N | ⊚ | – | ∘ | ⊚ | ∘ | ≥ 5% | – | – | –
19 | Cc1c(N=Nc2cc(C(=O)O)ccc2C(=O)O)c(O)n(Cc2cc(S(=O)(=O)O)cc(S(=O)(=O)O)c2)c(=O)c1C#N [compound 149] | ◯ | >10% | ◯ | ⊚ | ◯ | – | – | – | –
20 | C[N+](C)(C)C.C[N+](C)(C)C.Cc1c(N=Nc2cc(C(=O)[O-])ccc2C(=O)[O-])c(O)[nH]c(=O)c1C#N | ο | – | ο | – | ♯ | ≥ 3% | – | – | –
21 | Cc1c(N=Nc2cc(C(=O)O)ccc2C(=O)O)c(O)n(-c2cc(S(=O)(=O)O)cc(S(=O)(=O)O)c2)c(=O)c1C#N [compound 142] | ◯ | >8% | ◯ | ⊚ | ◯ | – | – | – | –
22 | Cc1c(N=Nc2cc(C(=O)[O-])ccc2C(=O)[O-])c(O)n(CCNc2nc(Cl)nc(NCCn3c(O)c(N=Nc4cc(C(=O)[O-])ccc4C(=O)[O-])c(C)c(C#N)c3=O)n2)c(=O)c1C#N.[K+].[K+].[K+].[K+] [potassium salt of compound No. 245] | ⊚ | – | ∘ | ⊚ | ∘ | ≥ 3% | – | – | –
23 | Cc1c(N=Nc2cc(C(=O)O)ccc2C(=O)O)c(O)[nH]c(=O)c1C#N [Compound No. 11] | ◯ | >3% | ◯ | ⊚ | ⊚ | – | – | – | –
